Data taken from patent publication US4155931A, “Ureylene phenylene anionic naphthalenesulfonic acids” (American Cyanamid Company, priority 1978, dated 1979).
Counter-ions that a name gives are not always drawn.

What was measured:
complement system = conditions: reported in literature or known; cited from earlier work
activated human C1 = activated human C1 (Homo sapiens, UniProt P09871); assay: Test Code 026 (C1 inhibitor): ability of activated human C1 to destroy fluid phase human C2 in the presence of C4; assay type: biochemical; conditions: two-fold serial dilution assay, higher well number indicates higher activity
Source text: (§1) An active inhibitor protects C2 from C1 and C4; (ii) Test Code 035 (C3-C9 inhibitor)--This test determines the ability of the late components of human complement (C3-C9) to lyse EAC 142 in the presence of appropriate dilutions of the test compound. An active inhibitor protects EAC 142 from lysis by human C3-C9; (iii) Test Code 036 (C-Shunt inhibitor)--In this test human erythrocytes rendered fragile are lysed in autologous serum via the shunt pathway activated by cobra venom factor in the presence of appropriate dilutions of the test compound. Inhibition of the shunt pathway results in failure of lysis; (iv) Forssman Vasculitis Test--Here, the well known complement dependent lesion, Forssman vasculitis, is produced in guinea pigs by intradermal injection of rabbit anti-Forssman antiserum. The lesion is measured in terms of diameter, edema and hemorrhage and the extent to which a combined index of these is inhibited by prior intraperitoneal injection of the test compound at 200 mg/kg is then reported, unless otherwise stated; (v) Forssman Shock Test--Lethal shock is produced in guinea pigs by an i.v. injection of anti-Forssman antiserum and the harmonic mean death time of treated guinea pigs is compared with that of simultaneous controls; (vi) Complement Level Reduction Test--In this test, the above dosed guinea pigs, or others, are bled for serum and the complement level is determined in undiluted serum by the capillary tube method of U.S. Pat. No. 3,876,376 and compared to undosed control guinea pigs; and (vii) Cap 50 Test--Here, appropriate amounts of the test compound are added to a pool of guinea pig serum in vitro, after which the undiluted serum capillary tube assay referred to above is run. The concentration of compound inhibiting 50% is reported.
(§2) **Activity in wells a serial dilution assay. Higher well number indicates
(§3) higher activity. The serial dilutions are two-fold.

[1] = tested on: late components of human complement (C3-C9); assay: Test Code 035 (C3-C9 inhibitor, C-Late): lysis of EAC 142 by late components of human complement; assay type: cell-based; conditions: two-fold serial dilution assay
Source text: as §1, §2, §3

shunt pathway = assay: Test Code 036 (C-Shunt inhibitor): lysis of fragile human erythrocytes in autologous serum via shunt pathway activated by cobra venom factor; assay type: cell-based; conditions: Table II (intermediates); two-fold serial dilution assay
Source text: as §1, §2, §3

[2] = reported in literature; cited from earlier work
[3] = tested on: total hemolytic complement activity of human serum; conditions: in vitro and in vivo, reported in literature; cited from earlier work
whole complement = assay: Complement Level Reduction Test: whole complement in serum of dosed guinea pigs, capillary tube assay; assay type: in vivo; conditions: guinea pig, intraperitoneal, 200 mg/kg
[4] = Table I, higher well number indicates higher activity

Nc1ccc2cc(S(=O)(=O)[O-])cc(O)c2c1N=Nc1ccc(NC(=O)Nc2ccc(N=Nc3c(N)ccc4cc(S(=O)(=O)[O-])cc(O)c34)c(S(=O)(=O)[O-])c2)cc1S(=O)(=O)[O-].[Na+].[Na+].[Na+].[Na+] [chlorazol fast pink, 3,3'-ureylenebis[6-(2-amino-8-hydroxy-6-sulfo-1-naphthylazo)benzenesulfonic acid], tetrasodium salt]
complement inhibitor / anticomplementary effect (complement system): anticomplementary effect

Cc1ccc(C(=O)Nc2ccc(S(=O)(=O)O)c3cc(S(=O)(=O)O)cc(S(=O)(=O)O)c23)cc1NC(=O)c1ccc(N)cc1S(=O)(=O)O [8-[3-(4-Amino-2-sulfobenzamido)-p-toluamido]-1,3,5-naphthalenetrisulfonic acid, tetrasodium salt]
Cl 026 (C1 inhibitor) (activated human C1; Table II (intermediates)): +2 Wells
C-Late 035 (C3-C9 inhibitor) ([1]; Table II (intermediates)): N
Shunt Inhibition 036 (shunt pathway): N

Cc1ccc(NC(=O)c2ccc(N)cc2S(=O)(=O)O)cc1S(=O)(=O)Nc1cc(S(=O)(=O)O)cc2cc(S(=O)(=O)O)cc(S(=O)(=O)O)c12 [8-[5-(4-Amino-2-sulfobenzamido)-o-toluenesulfonamido]-1,3,6-naphthalenetrisulfonic acid, tetrasodium salt]
Cl 026 (C1 inhibitor) (activated human C1; Table II (intermediates)): +4 Wells
C-Late 035 (C3-C9 inhibitor) ([1]; Table II (intermediates)): N
Shunt Inhibition 036 (shunt pathway): N

NCCCCCC(=O)O [epsilon-aminocaproic acid]
use in treatment of hereditary angioneurotic edema [2]: used with success in the treatment of hereditary angioneurotic edema

Nc1ccc(C(=O)Nc2cccc(S(=O)(=O)Nc3cc(S(=O)(=O)O)cc4cc(S(=O)(=O)O)cc(S(=O)(=O)O)c34)c2)c(S(=O)(=O)O)c1 [8-[N^3-(4-Amino-2-sulfobenzoyl)metanilamido]-1,3,6-naphthalenetrisulfonic acid, tetrasodium salt]
Cl 026 (C1 inhibitor) (activated human C1; Table II (intermediates)): +3 Wells
C-Late 035 (C3-C9 inhibitor) ([1]; Table II (intermediates)): N
Shunt Inhibition 036 (shunt pathway): N

Cc1ccc(NC(=O)c2ccc(NC(=O)Nc3ccc(C(=O)Nc4ccc(C)c(S(=O)(=O)Nc5cc(S(=O)(=O)O)cc6cc(S(=O)(=O)O)cc(S(=O)(=O)O)c56)c4)c(S(=O)(=O)O)c3)cc2S(=O)(=O)O)cc1S(=O)(=O)Nc1cc(S(=O)(=O)O)cc2cc(S(=O)(=O)O)cc(S(=O)(=O)O)c12 [8,8'-[Ureylenebis[[(2-sulfo-4,1-phenylenecarbonyl)imino](2-methyl-4,1-phenylene)sulfonyl]imino]]di-1,3,6-naphthalenetrisulfonic acid, octasodium salt]
Cl 026 (C1 inhibitor) (activated human C1; Table I): +4 Wells
C-Late 035 (C3-C9 inhibitor) [1, 4]: +2 Wells

NC[C@H]1CC[C@H](C(=O)O)CC1 [tranexamic acid]
use in treatment of hereditary angioneurotic edema [2]: used with success in the treatment of hereditary angioneurotic edema

Cc1ccc(S(=O)(=O)Nc2ccc(S(=O)(=O)[O-])c3cc(S(=O)(=O)[O-])cc(S(=O)(=O)[O-])c23)cc1NC(=O)c1cc(N)cc(C(=O)O)c1.[Na+].[Na+].[Na+] [5-Amino-2'-methyl-5'-(4,6,8-trisulfo-1-naphthylsulfamoyl)-isophthalanilic acid, trisodium salt]
Cl 026 (C1 inhibitor) (activated human C1; Table II (intermediates)): +2 Wells
C-Late 035 (C3-C9 inhibitor) ([1]; Table II (intermediates)): N
Shunt Inhibition 036 (shunt pathway): N

Cc1ccc(C(=O)Nc2ccc(S(=O)(=O)[O-])c3cc(S(=O)(=O)[O-])cc(S(=O)(=O)[O-])c23)cc1NC(=O)c1cc(NC(=O)Nc2cc(C(=O)O)cc(C(=O)Nc3cc(C(=O)Nc4ccc(S(=O)(=O)[O-])c5cc(S(=O)(=O)[O-])cc(S(=O)(=O)[O-])c45)ccc3C)c2)cc(C(=O)O)c1.[Na+].[Na+].[Na+].[Na+].[Na+].[Na+] [5,5"-Ureylenebis[2'-methyl-5'-[(4,6,8-trisulfo-1-naphthyl)carbamoyl]isophthalanilic acid], hexasodium salt]
Cl 026 (C1 inhibitor) (activated human C1; Table I): +5 Wells
C-Late 035 (C3-C9 inhibitor) [1, 4]: +2 Wells

heparin
complement inhibitor / anticomplementary effect (complement system): anticomplementary effect

pentosan-polysulfoester
anticomplementary activity of human serum (reduction in total hemolytic complement activity) [3]: anticomplementary activity of human serum

Cc1ccc(C(=O)Nc2ccc(S(=O)(=O)O)c3cc(S(=O)(=O)O)cc(S(=O)(=O)O)c23)cc1NC(=O)c1cccc(NC(=O)Nc2cccc(C(=O)Nc3cc(C(=O)Nc4ccc(S(=O)(=O)O)c5cc(S(=O)(=O)O)cc(S(=O)(=O)O)c45)ccc3C)c2)c1 [Suramin, reference compound]
Cl 026 (C1 inhibitor) (activated human C1; Table I): +4 Wells
C-Late 035 (C3-C9 inhibitor) [1, 4]: +2 Wells
complement inhibitor / anticomplementary effect (complement system): moderately active as a complement inhibitor

Cc1ccc(C(=O)Nc2ccc(S(=O)(=O)O)c3cc(S(=O)(=O)O)cc(S(=O)(=O)O)c23)cc1NC(=O)c1cc(NC(=O)Nc2cc(C(=O)O)cc(C(=O)Nc3cc(C(=O)Nc4ccc(S(=O)(=O)O)c5cc(S(=O)(=O)O)cc(S(=O)(=O)O)c45)ccc3C)c2)cc(C(=O)O)c1 [5,5"-Ureylenebis[2'-methyl-5"-[(4,6,8-trisulfo-1-naphthyl)carbamoyl]isophthalanilic acid], octasodium salt]
Cl 026 (C1 inhibitor) (activated human C1; Table I): +5 Wells
C-Late 035 (C3-C9 inhibitor) [1, 4]: +2 Wells
% Inhibition (whole complement; 30 minutes): -17%
% Inhibition (whole complement; 60 minutes): -50%
% Inhibition (whole complement; 120 minutes): -57%

Cc1ccc(C(=O)Nc2ccc(S(=O)(=O)[O-])c3cc(S(=O)(=O)[O-])cc(S(=O)(=O)[O-])c23)cc1NC(=O)c1ccc(NC(=O)Nc2ccc(C(=O)Nc3cc(C(=O)Nc4ccc(S(=O)(=O)[O-])c5cc(S(=O)(=O)[O-])cc(S(=O)(=O)[O-])c45)ccc3C)c(S(=O)(=O)[O-])c2)cc1S(=O)(=O)[O-].[Na+].[Na+].[Na+].[Na+].[Na+].[Na+].[Na+].[Na+] [8,8'-[Ureylenebis[[(2-sulfo-4,1-phenylenecarbonyl)imino]-(4-methyl-3,1-phenylenecarbonyl)imino]]di-1,3,5-naphthalenetrisulfonic acid, octasodium salt]
Cl 026 (C1 inhibitor) (activated human C1; Table I): +3 Wells
C-Late 035 (C3-C9 inhibitor) [1, 4]: +1 Wells

Cc1cc(C)c(S(=O)(=O)Nc2cc(S(=O)(=O)[O-])cc3cc(S(=O)(=O)[O-])cc(S(=O)(=O)[O-])c23)cc1NC(=O)c1ccc(NC(=O)Nc2ccc(C(=O)Nc3cc(S(=O)(=O)Nc4cc(S(=O)(=O)[O-])cc5cc(S(=O)(=O)[O-])cc(S(=O)(=O)[O-])c45)c(C)cc3C)c(S(=O)(=O)[O-])c2)cc1S(=O)(=O)[O-].[Na+].[Na+].[Na+].[Na+].[Na+].[Na+].[Na+].[Na+] [8,8'-[Ureylenebis[(2-sulfo-4,1-phenylenecarbonyl)imino(4,6-dimethyl-3,1-phenylenesulfonyl)imino]]di-1,3,6-naphthalenetrisulfonic acid, octasodium salt]
Cl 026 (C1 inhibitor) (activated human C1; Table I): +5 Wells
C-Late 035 (C3-C9 inhibitor) [1, 4]: +2 Wells

Cc1ccc(C(=O)Nc2cc(C(=O)O)cc(C(=O)Nc3ccc(S(=O)(=O)O)c4cc(S(=O)(=O)O)cc(S(=O)(=O)O)c34)c2)cc1NC(=O)Nc1cc(C(=O)Nc2cc(C(=O)O)cc(C(=O)Nc3ccc(S(=O)(=O)O)c4cc(S(=O)(=O)O)cc(S(=O)(=O)O)c34)c2)ccc1C [5,5'-Ureylenebis[(4-methyl-3,1-phenylenecarbonyl)imino]bis[N-(4,6,8-trisulfo-1-naphthyl)isophthalamic acid], hexasodium slt]
Cl 026 (C1 inhibitor) (activated human C1; Table I): +5 Wells
C-Late 035 (C3-C9 inhibitor) [1, 4]: +2 Wells

Cc1ccc(C(=O)Nc2ccc(S(=O)(=O)O)c3cc(S(=O)(=O)O)cc(S(=O)(=O)O)c23)cc1NC(=O)c1cc(N)cc(C(=O)O)c1 [5-Amino-2'-methyl-5'-[(4,6,8-trisulto-1-naphthyl)carbamoyl]isophthalanilic acid, trisodium salt]
Cl 026 (C1 inhibitor) (activated human C1; Table II (intermediates)): +2 Wells
C-Late 035 (C3-C9 inhibitor) ([1]; Table II (intermediates)): N
Shunt Inhibition 036 (shunt pathway): N

Cc1ccc(C(=O)Nc2cc(C(=O)O)cc(C(=O)Nc3ccc(S(=O)(=O)O)c4cc(S(=O)(=O)O)cc(S(=O)(=O)O)c34)c2)cc1N [5-(3-Amino-p-toluamido)-N-(4,6,8-trisulfo-1-naphthyl)isophthalamic acid, trisodium salt]
Cl 026 (C1 inhibitor) (activated human C1; Table II (intermediates)): +3 Wells
C-Late 035 (C3-C9 inhibitor) ([1]; Table II (intermediates)): N
Shunt Inhibition 036 (shunt pathway): N
